Converted amounts (≈) assume the structure as drawn. Residues, ends and D or L forms follow the SMILES beside them.
Tests used:
Format in all cases: cell-based
[1] = test system: E. faecium 21
Procedure: (§1) Standard strains included S. aureus ATCC33592, S. aureus CICC25138, and Salmonella enterica ATCC14028, which were purchased from the China Center of Industrial Culture Collection (CICC). Standard strains including E.coli CMCC44102, Salmonella enterica CMCC50071, and S. aureus CMCC26003 were purchased from the National Center for Medical Culture Collections (CMCC). […] All experiments using the above strains were carried out in a BSL‐2 laboratory. The clinical laboratory of Qilu Hospital detected bacterial resistance to various antibiotics. All strains were streaked on Nutrient Broth (NB) agar medium and incubated overnight at 37°C.
(§2) The antimicrobial activity of the peptides was examined in sterile 96‐well plates using the broth microdilution according to the CLSI standard. The colonies were suspended in saline solution, the turbidity was adjusted to McFarland 0.5 to reach a bacterial concentration of 10^8 CFU/mL, and again diluted 100 times for the inhibition test. Then, 50 µL of bacterial suspension at 1 × 10^6 CFU/mL was incubated with the same volume of different concentrations of peptide solution [serial twofold dilutions in Mueller–Hinton Broth (Hopebio)]. […] All experiments were performed with three independent replicates.

[2] = test system: P. aeruginosa 116
Procedure: as §1, §2

[3] = test system: P. aeruginosa 112
Procedure: as §1, §2

[4] = test system: E.coli 110
Procedure: as §1, §2

[5] = test system: E.coli CMCC44102
Procedure: as §1, §2

[6] = test system: K. pneumoniae 7713
Procedure: as §1, §2

[7] = test system: S. aureus CMCC26003
Procedure: as §1, §2

[8] = test system: S. aureus CICC25138
Procedure: as §1, §2

[9] = test system: S. aureus 103
Procedure: as §1, §2

[10] = test system: S. aureus ATCC33592
Procedure: as §1, §2

[11] = test system: E. faecium 1042
Procedure: as §1, §2

[12] = test system: P. aeruginosa 119
Procedure: as §1, §2

[13] = test system: E.coli 208
Procedure: as §1, §2

[14] = test system: S. aureus 129
Procedure: as §1, §2

[15] = test system: S. aureus CMCC26003; experiment: Drug resistance assay, serial passaging; settings: sub-MIC (1/2 × MIC), n = 3; for passages after which S. aureus developed resistance: passaged every 24 h, resistance = greater than fourfold MIC increase
Procedure: For comparison, the development of resistance to the clinically relevant antibiotics clindamycin (Macklin) and vancomycin (Macklin) was determined. The evolution of resistance by S. aureus CMCC26003 to antibiotics and the peptide was monitored for 20 days of serial passaging in liquid NB. Cells were passaged every 24 h. Briefly, 1 mL of bacterial suspension (1 × 10^6 CFU/mL) was incubated with antibiotics or peptide solution at half the minimal inhibitory concentration at 37°C, 200 rpm. After each incubation period, a new inoculum of 10^6 cells was prepared for inoculation of the following passage containing fresh medium and increased doses of the antimicrobial agent. During the 20 days of serial passaging, the minimum inhibitory concentration of antibiotics or peptides to each generation of cells was determined. The MIC determination method was as previously described. The development of bacterial resistance was defined as a greater than fourfold increase in MICs compared to the initial MICs.

Row | SMILES | MIC (μg/mL) E. faecium 21 [1] [µg/mL] | MIC (μg/mL) P. aeruginosa 116 [2] [µg/mL] | MIC (μg/mL) P. aeruginosa 112 [3] [µg/mL] | MIC (μg/mL) E.coli 110 [4] [µg/mL] | MIC (μg/mL) E.coli CMCC44102 [5] [µg/mL] | MIC (μg/mL) K. pneumoniae 7713 [6] [µg/mL] | MIC (μg/mL) S. aureus CMCC26003 [7] [µg/mL] | MIC (μg/mL) S. aureus CICC25138 [8] [µg/mL] | MIC (μg/mL) S. aureus 103 [9] [µg/mL] | MIC (μg/mL) S. aureus ATCC33592 [10] [µg/mL] | MIC (μg/mL) E. faecium 1042 [11] [µg/mL] | MIC (μg/mL) P. aeruginosa 119 [12] [µg/mL] | MIC (μg/mL) E.coli 208 [13] [µg/mL] | MIC (μg/mL) S. aureus 129 [14] [µg/mL] | passages after which S. aureus developed resistance [15] [passages] | factor of decrease in susceptibility by the 20th passage ([15]; 20 passages)
1 | CC[C@H](C)[C@H](NC(=O)[C@H](CCCNC(=N)N)NC(=O)[C@H](Cc1c[nH]c2ccccc12)NC(=O)[C@H](CCCCN)NC(=O)[C@H](CCC(N)=O)NC(=O)[C@H](CCCNC(=N)N)NC(=O)[C@@H](N)CCCNC(=N)N)C(=O)N[C@@H](CC(C)C)C(=O)N[C@@H](C)C(=O)N[C@@H](CC(C)C)C(=O)N[C@@H](CC(N)=O)C(=O)N[C@H](C(=O)N[C@@H](Cc1c[nH]c2ccccc12)C(=O)N[C@@H](CCCCN)C(N)=O)[C@@H](C)CC [QLX-3DV-11] (H-RRQKWRILALNIWK-NH2) | 4 (≈ 2.13 µM) | 32 (≈ 17 µM) | 4 (≈ 2.13 µM) | 4 (≈ 2.13 µM) | 4 (≈ 2.13 µM) | 8 (≈ 4.25 µM) | 2 (≈ 1.06 µM) | 16 (≈ 8.51 µM) | 16 (≈ 8.51 µM) | 8 (≈ 4.25 µM) | 4 (≈ 2.13 µM) | 32 (≈ 17 µM) | 8 (≈ 4.25 µM) | 4 (≈ 2.13 µM) |  | 
2 | CC(C)[C@H](N)C(=O)N[C@@H](CCCCN)C(=O)N[C@H](C(=O)N[C@@H](Cc1ccccc1)C(=O)N[C@@H](CCCNC(=N)N)C(=O)N[C@@H](Cc1ccccc1)C(=O)N[C@@H](Cc1ccc(O)cc1)C(=O)N[C@@H](Cc1c[nH]c2ccccc12)C(=O)N[C@@H](CCCCN)C(=O)N[C@@H](CCCNC(=N)N)C(=O)N[C@@H](CCCCN)C(=O)N[C@@H](CCC(N)=O)C(=O)N[C@@H](CCCNC(=N)N)C(=O)N[C@@H](Cc1ccccc1)C(N)=O)C(C)C [QLX-3DV-12] (H-VKVFRFYWKRKQRF-NH2) | 4 (≈ 2.01 µM) | 8 (≈ 4.03 µM) | 2 (≈ 1.01 µM) | 4 (≈ 2.01 µM) | 8 (≈ 4.03 µM) | 16 (≈ 8.05 µM) | 2 (≈ 1.01 µM) | 32 (≈ 16.1 µM) | 16 (≈ 8.05 µM) | 32 (≈ 16.1 µM) | 2 (≈ 1.01 µM) | 32 (≈ 16.1 µM) | 8 (≈ 4.03 µM) | 16 (≈ 8.05 µM) |  | 
3 | CC(C)C[C@H](NC(=O)[C@H](CC(C)C)NC(=O)[C@H](Cc1ccccc1)NC(=O)[C@H](CCCNC(=N)N)NC(=O)[C@H](CCCNC(=N)N)NC(=O)[C@H](CCCNC(=N)N)NC(=O)[C@H](CC(C)C)NC(=O)[C@H](CC(C)C)NC(=O)[C@H](CCCNC(=N)N)NC(=O)[C@H](CCCNC(=N)N)NC(=O)[C@H](CCC(N)=O)NC(=O)[C@H](Cc1c[nH]c2ccccc12)NC(=O)[C@@H](NC(=O)[C@H](CC(C)C)NC(=O)[C@H](CCCNC(=N)N)NC(=O)[C@H](Cc1ccc(O)cc1)NC(=O)[C@@H](N)CCC(N)=O)C(C)C)C(=O)N[C@@H](CCCCN)C(=O)N[C@@H](C)C(N)=O [QLX-3DV-13] (H-QYRLVWQRRLLRRRFLLKA-NH2) | 4 (≈ 1.56 µM) | 32 (≈ 12.4 µM) | 2 (≈ 0.778 µM) | 8 (≈ 3.11 µM) | 4 (≈ 1.56 µM) | 64 (≈ 24.9 µM) | 4 (≈ 1.56 µM) | 32 (≈ 12.4 µM) | 16 (≈ 6.22 µM) | 64 (≈ 24.9 µM) | 2 (≈ 0.778 µM) | 16 (≈ 6.22 µM) | 16 (≈ 6.22 µM) | 16 (≈ 6.22 µM) |  | 
4 | CC[C@H](C)[C@H](NC(=O)[C@@H](NC(=O)[C@@H](N)CCCCN)C(C)C)C(=O)N[C@@H](CC(N)=O)C(=O)N[C@@H](Cc1ccc(O)cc1)C(=O)N[C@@H](CCCCN)C(=O)N[C@@H](CC(C)C)C(=O)N[C@@H](CCCNC(=N)N)C(=O)N[C@@H](Cc1ccccc1)C(=O)N[C@@H](Cc1ccccc1)C(=O)N[C@@H](Cc1c[nH]c2ccccc12)C(=O)N[C@@H](C)C(=O)N1CCC[C@H]1C(=O)N[C@@H](Cc1c[nH]c2ccccc12)C(=O)N[C@@H](Cc1ccccc1)C(=O)N[C@@H](CCCCN)C(=O)N[C@@H](CCCCN)C(=O)N[C@@H](CC(C)C)C(N)=O [QLX-3DV-15] (H-KVINYKLRFFWAPWFKKL-NH2) | 4 (≈ 1.68 µM) | 32 (≈ 13.4 µM) | 4 (≈ 1.68 µM) | 8 (≈ 3.36 µM) | 8 (≈ 3.36 µM) | 64 (≈ 26.8 µM) | 4 (≈ 1.68 µM) | 16 (≈ 6.71 µM) | 16 (≈ 6.71 µM) | 16 (≈ 6.71 µM) | 4 (≈ 1.68 µM) | 64 (≈ 26.8 µM) | 4 (≈ 1.68 µM) | 8 (≈ 3.36 µM) |  | 
5 | CC[C@H](C)[C@H](NC(=O)[C@H](CC(C)C)NC(=O)[C@H](C)NC(=O)[C@H](CCCNC(=N)N)NC(=O)[C@@H](N)CCCNC(=N)N)C(=O)N[C@@H](Cc1ccc(O)cc1)C(=O)N[C@@H](CC(N)=O)C(=O)N[C@@H](CC(C)C)C(=O)N[C@H](C(=O)N[C@@H](CCCCN)C(=O)N[C@@H](CCCCN)C(=O)N[C@@H](Cc1c[nH]c2ccccc12)C(=O)N[C@@H](C)C(=O)N[C@@H](Cc1ccc(O)cc1)C(=O)N[C@@H](CO)C(=O)N[C@@H](Cc1ccc(O)cc1)C(=O)N[C@@H](CO)C(=O)N[C@@H](C)C(=O)N[C@H](C(N)=O)[C@@H](C)O)C(C)C [QLX-3DV-16] (H-RRALIYNLVKKWAYSYSAT-NH2) | 8 (≈ 3.47 µM) | 16 (≈ 6.95 µM) | 16 (≈ 6.95 µM) | 8 (≈ 3.47 µM) | 4 (≈ 1.74 µM) | 16 (≈ 6.95 µM) | 4 (≈ 1.74 µM) | 128 (≈ 55.6 µM) | 64 (≈ 27.8 µM) | 128 (≈ 55.6 µM) | 16 (≈ 6.95 µM) | 128 (≈ 55.6 µM) | 16 (≈ 6.95 µM) | 128 (≈ 55.6 µM) |  | 
6 | CC[C@H](C)[C@H](N)C(=O)N[C@H](C(=O)N[C@H](C(=O)N[C@@H](CCCNC(=N)N)C(=O)N[C@@H](Cc1ccccc1)C(=O)N[C@@H](CC(C)C)C(=O)N[C@@H](CCCCN)C(=O)N1CCC[C@H]1C(=O)N[C@@H](CCCCN)C(=O)N[C@@H](CC(C)C)C(=O)N[C@@H](CC(C)C)C(=O)N[C@@H](CCCCN)C(=O)N[C@@H](C)C(=O)N[C@@H](CC(C)C)C(=O)N[C@@H](CCCCN)C(N)=O)[C@@H](C)CC)C(C)C [QLX-3DV-19] (H-IVIRFLKPKLLKALK-NH2) | 16 (≈ 8.99 µM) | 32 (≈ 18 µM) | 16 (≈ 8.99 µM) | 8 (≈ 4.5 µM) | 16 (≈ 8.99 µM) | 32 (≈ 18 µM) | 4 (≈ 2.25 µM) | 128 (≈ 71.9 µM) | 64 (≈ 36 µM) | 128 (≈ 71.9 µM) |  | 128 (≈ 71.9 µM) | 32 (≈ 18 µM) | 128 (≈ 71.9 µM) |  | 
7 | CCC[C@@H]1C[C@@H](C(=O)N[C@@H]([C@H]2O[C@H](SC)[C@H](O)[C@@H](O)[C@H]2O)[C@H](C)Cl)N(C)C1 [clindamycin] |  |  |  |  |  |  |  |  |  |  |  |  |  |  | 15 | 
8 | CN[C@H](CC(C)C)C(=O)N[C@H]1C(=O)N[C@@H](CC(N)=O)C(=O)N[C@H]2C(=O)N[C@H]3C(=O)N[C@H](C(=O)N[C@H](C(=O)O)c4cc(O)cc(O)c4-c4cc3ccc4O)[C@H](O)c3ccc(c(Cl)c3)Oc3cc2cc(c3O[C@@H]2O[C@H](CO)[C@@H](O)[C@H](O)[C@H]2O[C@H]2C[C@](C)(N)[C@H](O)[C@H](C)O2)Oc2ccc(cc2Cl)[C@H]1O [vancomycin] |  |  |  |  |  |  |  |  |  |  |  |  |  |  | 18 | 64
